According to patent US20250375544A1, “DUAL MODE RADIOTRACER AND -THERAPEUTICS” (TECHNISCHE UNIVERSITÄT MÜNCHEN, priority 2021, published 2025):

What was measured:
[1] = ^177Lu-labeled compound, n = 6
[2] = tested on: LNCaP tumor xenograft-bearing CB17-SCID mice; test: Biodistribution in LNCaP tumor xenograft-bearing CB17-SCID mice

With CSCC[C@H](NC(=O)CC[C@H](NC(=O)N[C@@H](CCC(=O)N[C@H](CCCNC(=O)CCC(=O)NCCCC[C@@H](NC(=O)[C@@H](CNC(=O)c1ccc([Si](F)(C(C)(C)C)C(C)(C)C)cc1)NC(=O)CN1CCN(CC(=O)O)CCN(CC(=O)O)CCN(CC(=O)O)CC1)C(=O)O)C(=O)O)C(=O)O)C(=O)O)C(=O)O [Compound 5, Proinhibitor I] the “log D” value [1] was −2.89±0.18.

In the case of CC(C)(C)[Si](F)(c1ccc(C(=O)NC[C@@H](NC(=O)CN2CCN(CC(=O)[O-])CCN(CC(=O)[O-])CCN(CC(=O)[O-])CC2)C(=O)N[C@H](CCCCNC(=O)CCC(=O)NCCC[C@@H](NC(=O)CC[C@H](NC(=O)O[C@@H](CCC(=O)O)C(=O)O)C(=O)O)C(=O)O)C(=O)O)cc1)C(C)(C)C.[177Lu+3] [[^177Lu]Lu-3, [^177Lu]Lu-Carbamate I], the “Biodistribution Adrenals” value ([2]; 1 h p.i.) is reported as 1.46 ± 0.70 % ID/g, the “Biodistribution Blood” value ([2]; 1 h p.i.) is reported as 0.97 ± 0.18 % ID/g and the “Biodistribution Bone” value ([2]; 1 h p.i.) is reported as 0.18 ± 0.02 % ID/g. The “Biodistribution Heart” value ([2]; 1 h p.i.) was 0.36 ± 0.04 % ID/g, the “Biodistribution Intestine” value ([2]; 1 h p.i.) was 0.36 ± 0.17 % ID/g and the “Biodistribution Kidneys” value ([2]; 1 h p.i.) was 61.8±25.9 % ID/g. For the same molecule, the “Biodistribution Liver” value ([2]; 1 h p.i.) was 0.87 ± 0.28 % ID/g, the “Biodistribution Lung” value ([2]; 1 h p.i.) was 2.88 ± 2.96 % ID/g and the “Biodistribution Muscle” value ([2]; 1 h p.i.) was 0.13 ± 0.04 % ID/g. The “Biodistribution Pancreas” value ([2]; 1 h p.i.) was 0.25 ± 0.06 % ID/g, the “Biodistribution Parotid gland” value ([2]; 1 h p.i.) was 0.62 ± 0.20 % ID/g and the “Biodistribution Spleen” value ([2]; 1 h p.i.) was 2.51 ± 0.95 % ID/g. The “Biodistribution Stomach” value ([2]; 1 h p.i.) was 0.30 ± 0.09 % ID/g, the “Biodistribution Submandibular gland” value ([2]; 1 h p.i.) was 0.37 ± 0.08 % ID/g and the “Biodistribution Tumor” value ([2]; 1 h p.i.) was 5.31±0.94 % ID/g. The “Ratio Tumor-to-blood” value ([2]; 1 h p.i.) was 5.57 ± 1.18, the “Ratio Tumor-to-kidney” value ([2]; 1 h p.i.) was 0.09 ± 0.03 and the “Ratio Tumor-to-liver” value ([2]; 1 h p.i.) was 6.61 ± 2.19. The “Ratio Tumor-to-muscle” value ([2]; 1 h p.i.) was 44.1 ± 9.0, the “Ratio Tumor-to-parotid gland” value ([2]; 1 h p.i.) was 9.09 ± 3.13 and the “Ratio Tumor-to-submandibular gland” value ([2]; 1 h p.i.) was 14.7 ± 3.5. For the same molecule, the “tumor-to-submandibularis and -parotidea ratios at 1 h p.i. compared to respective values at 24 h p.i.” value ([2]; 1 h p.i. vs 24 h p.i.) was “two-fold lower”, the “Biodistribution Adrenals” value ([2]; 24 h p.i.) was 0.04 ± 0.01 % ID/g and the “Biodistribution Blood” value ([2]; 24 h p.i.) was 0.00 ± 0.00 % ID/g. The “Biodistribution Bone” value ([2]; 24 h p.i.) was 0.02 ± 0.01 % ID/g, the “Biodistribution Heart” value ([2]; 24 h p.i.) was 0.02 ± 0.01 % ID/g and the “Biodistribution Intestine” value ([2]; 24 h p.i.) was 0.12 ± 0.06 % ID/g. The “Biodistribution Kidneys” value ([2]; 24 h p.i.) was 0.31 ± 0.05 % ID/g, the “Biodistribution Liver” value ([2]; 24 h p.i.) was 0.13 ± 0.05 % ID/g and the “Biodistribution Lung” value ([2]; 24 h p.i.) was 0.03 ± 0.01 % ID/g. For the same molecule, the “Biodistribution Muscle” value ([2]; 24 h p.i.) was 0.01 ± 0.01 % ID/g, the “Biodistribution Pancreas” value ([2]; 24 h p.i.) was 0.02 ± 0.01 % ID/g and the “Biodistribution Parotid gland” value ([2]; 24 h p.i.) was 0.04 ± 0.02 % ID/g. The “Biodistribution Spleen” value ([2]; 24 h p.i.) was 0.09 ± 0.01 % ID/g, the “Biodistribution Stomach” value ([2]; 24 h p.i.) was 0.06 ± 0.04 % ID/g and the “Biodistribution Submandibular gland” value ([2]; 24 h p.i.) was 0.03 ± 0.01 % ID/g. For the same molecule, the “Biodistribution Tumor” value ([2]; 24 h p.i.) was 1.20 ± 0.55 % ID/g, the “Ratio Tumor-to-blood” value ([2]; 24 h p.i.) was 947 ± 652 and the “Ratio Tumor-to-kidney” value ([2]; 24 h p.i.) was 3.80 ± 1.36. The “Ratio Tumor-to-liver” value ([2]; 24 h p.i.) was 8.94 ± 2.94, the “Ratio Tumor-to-muscle” value ([2]; 24 h p.i.) was 127 ± 92 and the “Ratio Tumor-to-parotid gland” value ([2]; 24 h p.i.) was 31.8 ± 9.3. For the same molecule, the “Ratio Tumor-to-submandibular gland” value ([2]; 24 h p.i.) was 34.5 ± 9.2 and the “log D” value [1] was −3.40±0.45.

With CSCC[C@H](NC(=O)CC[C@H](NC(=O)N[C@@H](CCC(=O)N[C@H](CCCNC(=O)CCC(=O)NCCCC[C@@H](NC(=O)[C@@H](CNC(=O)c1ccc([Si](F)(C(C)(C)C)C(C)(C)C)cc1)NC(=O)CN1CCN(CC(=O)[O-])CCN(CC(=O)[O-])CCN(CC(=O)[O-])CC1)C(=O)O)C(=O)O)C(=O)O)C(=O)O)C(=O)O.[177Lu+3] [[^177Lu]Lu-5, [^177Lu]Lu-Proinhibitor I] the “Biodistribution Adrenals” value ([2]; 24 h p.i.) was 0.00 ± 0.00 % ID/g, the “Biodistribution Blood” value ([2]; 24 h p.i.) was 0.00 ± 0.00 % ID/g and the “Biodistribution Bone” value ([2]; 24 h p.i.) was 0.00 ± 0.00 % ID/g. For the same molecule, the “Biodistribution Heart” value ([2]; 24 h p.i.) was 0.01 ± 0.00 % ID/g, the “Biodistribution Intestine” value ([2]; 24 h p.i.) was 0.55 ± 0.04 % ID/g and the “Biodistribution Kidneys” value ([2]; 24 h p.i.) was 0.48 ± 0.02 % ID/g. The “Biodistribution Liver” value ([2]; 24 h p.i.) was 0.05 ± 0.00 % ID/g, the “Biodistribution Lung” value ([2]; 24 h p.i.) was 0.33 ± 0.30 % ID/g and the “Biodistribution Muscle” value ([2]; 24 h p.i.) was 0.00 ± 0.00 % ID/g. The “Biodistribution Pancreas” value ([2]; 24 h p.i.) was 0.01 ± 0.00 % ID/g, the “Biodistribution Parotid gland” value ([2]; 24 h p.i.) was 0.02 ± 0.00 % ID/g and the “Biodistribution Spleen” value ([2]; 24 h p.i.) was 0.05 ± 0.01 % ID/g. For the same molecule, the “Biodistribution Stomach” value ([2]; 24 h p.i.) was 0.14 ± 0.07 % ID/g, the “Biodistribution Submandibular gland” value ([2]; 24 h p.i.) was 0.02 ± 0.01 % ID/g and the “Biodistribution Tumor” value ([2]; 24 h p.i.) was 0.09±0.02 % ID/g.

For CCCCCC[C@H](NC(=O)CC[C@H](NC(=O)N[C@@H](CCC(=O)N[C@H](CCCNC(=O)CCC(=O)NCCCC[C@@H](NC(=O)[C@@H](CNC(=O)c1ccc([Si](F)(C(C)(C)C)C(C)(C)C)cc1)NC(=O)CN1CCN(CC(=O)[O-])CCN(CC(=O)[O-])CCN(CC(=O)[O-])CC1)C(=O)O)C(=O)O)C(=O)O)C(=O)O)C(=O)O.[177Lu+3] [[^177Lu]Lu-6, [^177Lu]Lu-Proinhibitor II], the “Biodistribution Adrenals” value ([2]; 24 h p.i.) was 0.04 ± 0.00 % ID/g, the “Biodistribution Blood” value ([2]; 24 h p.i.) was 0.00 ± 0.00 % ID/g and the “Biodistribution Bone” value ([2]; 24 h p.i.) was 0.02 ± 0.01 % ID/g. For the same molecule, the “Biodistribution Heart” value ([2]; 24 h p.i.) was 0.03 ± 0.01 % ID/g, the “Biodistribution Intestine” value ([2]; 24 h p.i.) was 0.18 ± 0.06 % ID/g and the “Biodistribution Kidneys” value ([2]; 24 h p.i.) was 2.36 ± 0.39 % ID/g. The “Biodistribution Liver” value ([2]; 24 h p.i.) was 0.14 ± 0.02 % ID/g, the “Biodistribution Lung” value ([2]; 24 h p.i.) was 0.10 ± 0.08 % ID/g and the “Biodistribution Muscle” value ([2]; 24 h p.i.) was 0.02 ± 0.00 % ID/g. For the same molecule, the “Biodistribution Pancreas” value ([2]; 24 h p.i.) was 0.03 ± 0.01 % ID/g, the “Biodistribution Parotid gland” value ([2]; 24 h p.i.) was 0.09 ± 0.03 % ID/g and the “Biodistribution Spleen” value ([2]; 24 h p.i.) was 0.11 ± 0.03 % ID/g. For the same molecule, the “Biodistribution Stomach” value ([2]; 24 h p.i.) was 0.05 ± 0.01 % ID/g, the “Biodistribution Submandibular gland” value ([2]; 24 h p.i.) was 0.07 ± 0.01 % ID/g and the “Biodistribution Tumor” value ([2]; 24 h p.i.) was 0.33±0.11 % ID/g.

In the case of CCCCCC[C@H](NC(=O)[C@H](CCC(=O)O)NC(=O)N[C@@H](CCC(=O)N[C@H](CCCNC(=O)CCC(=O)NCCCC[C@@H](NC(=O)[C@@H](CNC(=O)c1ccc([Si](F)(C(C)(C)C)C(C)(C)C)cc1)NC(=O)CN1CCN(CC(=O)[O-])CCN(CC(=O)[O-])CCN(CC(=O)[O-])CC1)C(=O)O)C(=O)O)C(=O)O)C(=O)O.[177Lu+3] [[^177Lu]Lu-7, [^177Lu]Lu-Proinhibitor III], the “Biodistribution Adrenals” value ([2]; 24 h p.i.) is reported as 0.03 ± 0.01 % ID/g, the “Biodistribution Blood” value ([2]; 24 h p.i.) is reported as 0.01 ± 0.00 % ID/g and the “Biodistribution Bone” value ([2]; 24 h p.i.) is reported as 0.04 ± 0.01 % ID/g. The “Biodistribution Heart” value ([2]; 24 h p.i.) was 0.03 ± 0.01 % ID/g, the “Biodistribution Intestine” value ([2]; 24 h p.i.) was 0.10 ± 0.05 % ID/g and the “Biodistribution Kidneys” value ([2]; 24 h p.i.) was 2.04 ± 0.75 % ID/g. The “Biodistribution Liver” value ([2]; 24 h p.i.) was 0.17 ± 0.05 % ID/g, the “Biodistribution Lung” value ([2]; 24 h p.i.) was 0.04 ± 0.01 % ID/g and the “Biodistribution Muscle” value ([2]; 24 h p.i.) was 0.01 ± 0.00 % ID/g. For the same molecule, the “Biodistribution Pancreas” value ([2]; 24 h p.i.) was 0.02 ± 0.00 % ID/g, the “Biodistribution Parotid gland” value ([2]; 24 h p.i.) was 0.06 ± 0.01 % ID/g and the “Biodistribution Spleen” value ([2]; 24 h p.i.) was 0.08 ± 0.02 % ID/g. For the same molecule, the “Biodistribution Stomach” value ([2]; 24 h p.i.) was 0.04 ± 0.01 % ID/g, the “Biodistribution Submandibular gland” value ([2]; 24 h p.i.) was 0.05 ± 0.02 % ID/g and the “Biodistribution Tumor” value ([2]; 24 h p.i.) was 0.14 ± 0.05 % ID/g.
